# Results as given in PubChem BioAssay AID1963984 (Molecular Pharmacology Branch, DTP, NCI, 2024).
# System: 233499-124-R-J3-PDC spheroids with HUVEC/MSC, viability
# Assay: Anticancer human tumor 233499-124-R-J3-PDC patient-derived colon adenocarcinoma cell line growth inhibition [PI3K]
# Settings: for IC50: curve of first compound; for viability, T/C: stronger effect = lower value
# Procedure, shortened: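 Three cell types, namely tumor cells, endothelial cells and mesenchymal stem cells, formed each spheroid. Combinations with four PI3K inhibitors were screened at clinically achievable concentrations decreasing by half-log, and spheroid viability was recorded.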
# [1] = second compound 0.00316 µM, first compound 0.0316 µM
# [2] = second compound 0.00316 µM, first compound 0.1 µM
# [3] = second compound 0.00316 µM, first compound 0.316 µM
# [4] = second compound 0.00316 µM, first compound 1 µM
# [5] = second compound 0.00316 µM, first compound 3.16 µM
# [6] = second compound 0.00316 µM, first compound 10 µM
# [7] = second compound 0.01 µM, first compound 0.0316 µM
# [8] = second compound 0.01 µM, first compound 0.1 µM
# [9] = second compound 0.01 µM, first compound 0.316 µM
# [10] = second compound 0.01 µM, first compound 1 µM
# [11] = second compound 0.01 µM, first compound 3.16 µM
# [12] = second compound 0.01 µM, first compound 10 µM
# [13] = second compound 0.0316 µM, first compound 0.0316 µM
# [14] = second compound 0.0316 µM, first compound 0.1 µM
# [15] = second compound 0.0316 µM, first compound 0.316 µM
# [16] = second compound 0.0316 µM, first compound 1 µM
# [17] = second compound 0.0316 µM, first compound 3.16 µM
# [18] = second compound 0.0316 µM, first compound 10 µM
# [19] = second compound 0.1 µM, first compound 0.0316 µM
# [20] = second compound 0.1 µM, first compound 0.1 µM
# [21] = second compound 0.1 µM, first compound 0.316 µM
# [22] = second compound 0.1 µM, first compound 1 µM
# [23] = second compound 0.1 µM, first compound 3.16 µM
# [24] = second compound 0.1 µM, first compound 10 µM
# [25] = second compound 0.316 µM, first compound 0.0316 µM
# [26] = second compound 0.316 µM, first compound 0.1 µM
# [27] = second compound 0.316 µM, first compound 0.316 µM
# [28] = second compound 0.316 µM, first compound 1 µM
# [29] = second compound 0.316 µM, first compound 3.16 µM
# [30] = second compound 0.316 µM, first compound 10 µM
# [31] = second compound 1 µM, first compound 0.0316 µM
# [32] = second compound 1 µM, first compound 0.1 µM
# [33] = second compound 1 µM, first compound 0.316 µM
# [34] = second compound 1 µM, first compound 1 µM
# [35] = second compound 1 µM, first compound 3.16 µM
# [36] = second compound 1 µM, first compound 10 µM
# 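Also: spheroids exposed to agents for seven days before readout.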
# 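For viability, T/C in this document: percent viability relative to DMSO vehicle control taken as 100%.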
compound,measurement,setting,value
C=CC(=O)N1CCN(c2nc(=O)n(-c3c(C)ccnc3C(C)C)c3nc(-c4c(O)cccc4F)c(F)cc23)C(C)C1 (stereo not given) + COc1c(OCCCN2CCOCC2)ccc2c3n(c(=NC(=O)c4cnc(N)nc4)nc12)CCN3,IC50,second compound 0.00316 µM,> 10 µM
same,IC50,second compound 0.01 µM,> 10 µM
same,IC50,second compound 0.0316 µM,> 10 µM
same,IC50,second compound 0.1 µM,> 10 µM
same,IC50,second compound 0.316 µM,< 0.0316 µM
same,IC50,second compound 1 µM,< 0.0316 µM
same,"viability, T/C",[1],98.1%
same,"viability, T/C",[2],103%
same,"viability, T/C",[3],87.8%
same,"viability, T/C",[4],97.7%
same,"viability, T/C",[5],88.4%
same,"viability, T/C",[6],119%
same,"viability, T/C",[7],109%
same,"viability, T/C",[8],101%
same,"viability, T/C",[9],85.5%
same,"viability, T/C",[10],86.5%
same,"viability, T/C",[11],84.6%
same,"viability, T/C",[12],113%
same,"viability, T/C",[13],94.1%
same,"viability, T/C",[14],98.3%
same,"viability, T/C",[15],85.3%
same,"viability, T/C",[16],95.6%
same,"viability, T/C",[17],103%
same,"viability, T/C",[18],92.5%
same,"viability, T/C",[19],101%
same,"viability, T/C",[20],73.4%
same,"viability, T/C",[21],88%
same,"viability, T/C",[22],58.9%
same,"viability, T/C",[23],67.6%
same,"viability, T/C",[24],82%
same,"viability, T/C",[25],46.3%
same,"viability, T/C",[26],39.4%
same,"viability, T/C",[27],33.1%
same,"viability, T/C",[28],36.4%
same,"viability, T/C",[29],43.7%
same,"viability, T/C",[30],36%
same,"viability, T/C",[31],10%
same,"viability, T/C",[32],7.27%
same,"viability, T/C",[33],12.6%
same,"viability, T/C",[34],6.71%
same,"viability, T/C",[35],15.8%
same,"viability, T/C",[36],7.62%
CC(C)NCC(C(=O)N1CCN(c2ncnc3c2C(C)CC3O)CC1)c1ccc(Cl)cc1 (stereo not given) + COc1c(OCCCN2CCOCC2)ccc2c3n(c(=NC(=O)c4cnc(N)nc4)nc12)CCN3,IC50,second compound 0.00316 µM,> 10 µM
same,IC50,second compound 0.01 µM,> 10 µM
same,IC50,second compound 0.0316 µM,> 10 µM
same,IC50,second compound 0.1 µM,> 10 µM
same,IC50,second compound 0.316 µM,< 0.0316 µM
same,IC50,second compound 1 µM,< 0.0316 µM
same,"viability, T/C",[1],92.1%
same,"viability, T/C",[2],88.9%
same,"viability, T/C",[3],74%
same,"viability, T/C",[4],81.8%
same,"viability, T/C",[5],98.8%
same,"viability, T/C",[6],81.5%
same,"viability, T/C",[7],103%
same,"viability, T/C",[8],96.6%
same,"viability, T/C",[9],82.7%
same,"viability, T/C",[10],97.1%
same,"viability, T/C",[11],90%
same,"viability, T/C",[12],80.2%
same,"viability, T/C",[13],81%
same,"viability, T/C",[14],98.1%
same,"viability, T/C",[15],76.6%
same,"viability, T/C",[16],84.4%
same,"viability, T/C",[17],84.3%
same,"viability, T/C",[18],84.1%
same,"viability, T/C",[19],68.4%
same,"viability, T/C",[20],76.4%
same,"viability, T/C",[21],61.4%
same,"viability, T/C",[22],52.2%
same,"viability, T/C",[23],49.7%
same,"viability, T/C",[24],65.8%
same,"viability, T/C",[25],32.2%
same,"viability, T/C",[26],32%
same,"viability, T/C",[27],31.9%
same,"viability, T/C",[28],17.1%
same,"viability, T/C",[29],35.4%
same,"viability, T/C",[30],20.6%
same,"viability, T/C",[31],5.67%
same,"viability, T/C",[32],11.1%
same,"viability, T/C",[33],6.6%
same,"viability, T/C",[34],11.4%
same,"viability, T/C",[35],16.2%
same,"viability, T/C",[36],10.2%
CCN1CCN(Cc2ccc(Nc3ncc(F)c(-c4cc(F)c5nc(C)n(C(C)C)c5c4)n3)nc2)CC1 + COc1c(OCCCN2CCOCC2)ccc2c3n(c(=NC(=O)c4cnc(N)nc4)nc12)CCN3,IC50,second compound 0.00316 µM,> 1 µM
same,IC50,second compound 0.01 µM,0.816 µM
same,IC50,second compound 0.0316 µM,0.33 µM
same,IC50,second compound 0.1 µM,0.00908 µM
same,IC50,second compound 0.316 µM,< 0.00316 µM
same,IC50,second compound 1 µM,< 0.00316 µM
same,"viability, T/C","second compound 0.00316 µM, first compound 0.00316 µM",81.7%
same,"viability, T/C","second compound 0.00316 µM, first compound 0.01 µM",92%
same,"viability, T/C",[1],79.2%
same,"viability, T/C",[2],60.8%
same,"viability, T/C",[3],77.3%
same,"viability, T/C",[4],48.6%
same,"viability, T/C","second compound 0.01 µM, first compound 0.00316 µM",84.3%
same,"viability, T/C","second compound 0.01 µM, first compound 0.01 µM",105%
same,"viability, T/C",[7],97%
same,"viability, T/C",[8],83.6%
same,"viability, T/C",[9],71.2%
same,"viability, T/C",[10],45.5%
same,"viability, T/C","second compound 0.0316 µM, first compound 0.00316 µM",89.2%
same,"viability, T/C","second compound 0.0316 µM, first compound 0.01 µM",85.6%
same,"viability, T/C",[13],80.9%
same,"viability, T/C",[14],57%
same,"viability, T/C",[15],59.6%
same,"viability, T/C",[16],23.7%
same,"viability, T/C","second compound 0.1 µM, first compound 0.00316 µM",81.3%
same,"viability, T/C","second compound 0.1 µM, first compound 0.01 µM",46%
same,"viability, T/C",[19],49.2%
same,"viability, T/C",[20],49.1%
same,"viability, T/C",[21],44.4%
same,"viability, T/C",[22],32%
same,"viability, T/C","second compound 0.316 µM, first compound 0.00316 µM",34.3%
same,"viability, T/C","second compound 0.316 µM, first compound 0.01 µM",16.4%
same,"viability, T/C",[25],30.5%
same,"viability, T/C",[26],20.7%
same,"viability, T/C",[27],23.7%
same,"viability, T/C",[28],22.9%
same,"viability, T/C","second compound 1 µM, first compound 0.00316 µM",8.08%
same,"viability, T/C","second compound 1 µM, first compound 0.01 µM",11.5%
same,"viability, T/C",[31],10.4%
same,"viability, T/C",[32],9.39%
same,"viability, T/C",[33],7.45%
same,"viability, T/C",[34],11.2%
Cn1ncc(Cl)c1-c1cc(C(=O)NC(CN)Cc2cccc(F)c2)sc1Cl (stereo not given) + COc1c(OCCCN2CCOCC2)ccc2c3n(c(=NC(=O)c4cnc(N)nc4)nc12)CCN3,IC50,second compound 0.00316 µM,4.1 µM
same,IC50,second compound 0.01 µM,2.78 µM
same,IC50,second compound 0.0316 µM,1.64 µM
same,IC50,second compound 0.1 µM,0.516 µM
same,IC50,second compound 0.316 µM,< 0.0316 µM
same,IC50,second compound 1 µM,< 0.0316 µM
same,"viability, T/C",[1],70.1%
same,"viability, T/C",[2],88.1%
same,"viability, T/C",[3],83.2%
same,"viability, T/C",[4],83.7%
same,"viability, T/C",[5],58.9%
same,"viability, T/C",[6],19.6%
same,"viability, T/C",[7],81.6%
same,"viability, T/C",[8],97.4%
same,"viability, T/C",[9],98.8%
same,"viability, T/C",[10],77.8%
same,"viability, T/C",[11],46.8%
same,"viability, T/C",[12],46.1%
same,"viability, T/C",[13],81.9%
same,"viability, T/C",[14],80.1%
same,"viability, T/C",[15],78.8%
same,"viability, T/C",[16],59.6%
same,"viability, T/C",[17],36.3%
same,"viability, T/C",[18],20.5%
same,"viability, T/C",[19],61.7%
same,"viability, T/C",[20],62.8%
same,"viability, T/C",[21],56.9%
same,"viability, T/C",[22],37.7%
same,"viability, T/C",[23],36.7%
same,"viability, T/C",[24],16.1%
same,"viability, T/C",[25],21.4%
same,"viability, T/C",[26],42.5%
same,"viability, T/C",[27],19.2%
same,"viability, T/C",[28],34.3%
same,"viability, T/C",[29],31.9%
same,"viability, T/C",[30],11.3%
same,"viability, T/C",[31],8.63%
same,"viability, T/C",[32],9.16%
same,"viability, T/C",[33],15.4%
same,"viability, T/C",[34],10.9%
same,"viability, T/C",[35],7.03%
same,"viability, T/C",[36],1.23%
Cn1nccc1Nc1nccc(-c2ccn(C(CO)c3ccc(Cl)c(F)c3)c(=O)c2)n1 (stereo not given) + COc1c(OCCCN2CCOCC2)ccc2c3n(c(=NC(=O)c4cnc(N)nc4)nc12)CCN3,IC50,second compound 0.00316 µM,> 10 µM
same,IC50,second compound 0.01 µM,> 10 µM
same,IC50,second compound 0.0316 µM,> 10 µM
same,IC50,second compound 0.1 µM,0.791 µM
same,IC50,second compound 0.316 µM,< 0.0316 µM
same,IC50,second compound 1 µM,< 0.0316 µM
same,"viability, T/C",[1],90.5%
same,"viability, T/C",[2],86.6%
same,"viability, T/C",[3],86.4%
same,"viability, T/C",[4],91.4%
same,"viability, T/C",[5],80.1%
same,"viability, T/C",[6],70.1%
same,"viability, T/C",[7],90%
same,"viability, T/C",[8],78.2%
same,"viability, T/C",[9],67.7%
same,"viability, T/C",[10],78.3%
same,"viability, T/C",[11],67%
same,"viability, T/C",[12],56.3%
same,"viability, T/C",[13],92.1%
same,"viability, T/C",[14],75.9%
same,"viability, T/C",[15],70.6%
same,"viability, T/C",[16],65.9%
same,"viability, T/C",[17],53.7%
same,"viability, T/C",[18],54.3%
same,"viability, T/C",[19],84.9%
same,"viability, T/C",[20],72%
same,"viability, T/C",[21],58.4%
same,"viability, T/C",[22],46.2%
same,"viability, T/C",[23],40.3%
same,"viability, T/C",[24],24.4%
same,"viability, T/C",[25],20.4%
same,"viability, T/C",[26],37.7%
same,"viability, T/C",[27],27.1%
same,"viability, T/C",[28],14.2%
same,"viability, T/C",[29],12%
same,"viability, T/C",[30],9.88%
same,"viability, T/C",[31],5.63%
same,"viability, T/C",[32],5.4%
same,"viability, T/C",[33],6.24%
same,"viability, T/C",[34],5.85%
same,"viability, T/C",[35],2.1%
same,"viability, T/C",[36],1.53%
